Here are results for 25 compounds from patent US20230044787A1, “TRICYCLE DIHYDROIMIDAZOPYRIMIDONE DERIVATIVE, PREPARATION METHOD THEREOF, PHARMACEUTICAL COMPOSITION AND USE THEREOF” (priority 2019, published 2023).

Structures are written as SMILES.

For one assay, the target named is T1, Lp-PLA2 (Homo sapiens, UniProt Q13093).
T1 construct: aliquoted and thawed 40 μL of pooled human plasma was previously added; from tissue; host or cells: pooled human plasma
T1 sequence (Q13093 22-441): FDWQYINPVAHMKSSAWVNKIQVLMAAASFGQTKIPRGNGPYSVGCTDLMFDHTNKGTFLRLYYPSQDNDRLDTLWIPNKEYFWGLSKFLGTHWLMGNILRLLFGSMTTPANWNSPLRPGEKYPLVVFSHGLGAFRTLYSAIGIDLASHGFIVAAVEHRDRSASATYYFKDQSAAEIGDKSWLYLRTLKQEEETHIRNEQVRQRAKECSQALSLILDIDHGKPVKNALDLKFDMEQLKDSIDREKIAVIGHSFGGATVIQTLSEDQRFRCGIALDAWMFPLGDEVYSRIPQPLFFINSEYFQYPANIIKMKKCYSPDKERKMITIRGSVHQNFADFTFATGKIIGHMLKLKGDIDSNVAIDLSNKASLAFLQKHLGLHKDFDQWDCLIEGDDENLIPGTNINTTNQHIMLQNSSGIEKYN
As to the kind of experiment: Lipoprotein-associated phospholipase A2 (Lp-PLA2) human plasma assay (Thio-PAF assay). It is filed as biochemical. The settings on record: Comparison of activity data (I); pooled human plasma, 2-thio-PAF substrate, 30-min pre-incubation. As for the experimental part: Lipoprotein-Associated Phospholipase A2 (Lp-PLA2) Human Plasma Assay
The amount of sulfhydryl groups is continuously determined by the reaction with CPM (7-diethylamino-3-(4′-maleimidophenyl)-4-methylcoumarin), and the CPM is a maleimide of which fluorescence increases after Michael addition of sulfhydryl group. This assay can detect Lp-PLA2 activity in human plasma, as determined by specific inhibition of Lp-PLA2 inhibitors.
Thio-PAF assay was performed as quenched 75 μL assay. Compound source plate was prepared for each compound by preparing 1:3 (by volume) serial dilutions in pure DMSO in a 96-well microplate. The compound on the source plate was diluted 20-fold by transferring 3 μL of the compound from the compound source plate into a 96-well microplate pre-added with 57 μL of assay buffer by Rainin multichannel pipette. The assay buffer described above consisted of 50 mM HEPES, pH 7.4, 150 mM NaCl, 1 mM CHAPS. 1 μL of the 20-fold diluted compound was transferred by Rainin multichannel pipette into a 96-well Greiner 655076 (black) microplate to which aliquoted and thawed 40 μL of pooled human plasma was previously added. The plate was shaken for 20 seconds on a microplate shaker to mix well. After a 30-min pre-incubation at room temperature, 10 μL of substrate solution was added to the 96-well Greiner 655076 (black) microplate by Rainin multichannel pipette, in which the substrate solution contained 2.5 mM 2-thio-PAF [from ethanol stock], 32 μM CPM [from DMSO stock], and 3.2 mM NEM (N-ethylmaleimide) [freshly prepared in DMSO per experiment] in assay buffer consisting of 50 mM HEPES, pH 7.4; 150 mM NaCl; 1 mM CHAPS. After 2 min, the reaction was quenched with […] of 5% trifluoroacetic acid (TFA) in water. The plate was centrifuged at 2000 rpm for 1 minute. The plate was read at ex:380/em:485 using a Biotek Synergy H1 (H1MF) microplate reader. IC50 data, curves and QC analysis were performed using GraphPad Prism 6.0 and Excel.
On to `O=c1nc(OCc2cc(F)c(F)c(F)c2)cc2n1C[C@@H]1COCCN21` [Example 123 in WO2016011930A1, reference compound], for which the IC50 – broadly, the concentration at which inhibition is half-maximal – was found to be 75.3 nM.

The same assay, now with this note: Lp-PLA2 human plasma assay (Thio-PAF), pooled human plasma, 30-min pre-incubation at room temperature.
Consider `O=c1nc(OCc2ccc(Oc3cccc(C(F)(F)F)c3)c(F)c2)cc2n1CC13CCC(CC1)N23` [Example 126, 3-((3-fluoro-4-(3-(trifluoromethyl)phenoxy)benzyl)oxy)-7,8-dihydro-1H,6H,9H-6,8a-ethanopyrrolo[1′,2′:3,4] imidazo[1,2-c]pyrimidin-1-one], for which the IC50 was 5 nM.
Same read-out and setting: as for `N#Cc1cc(COc2cc3n(c(=O)n2)CC24CCC(CC2)N34)ccc1Oc1cccc(C(F)(F)F)c1` [Example 2, 5-(((1-Oxo-7,8-dihydro-1H,6H,9H-6,8a-ethanopyrrolo[1′,2′:3,4]imidazo[1,2-c]pyrimidin-3-yl)oxy)methyl)-2-(3-(trifluoromethyl)phenoxy)benzonitrile], the figure is 2.6 nM.
Same read-out and setting: as for `CC12COCCN1c1cc(OCc3cc(F)c(Oc4ccnc(C(F)(F)F)c4)c(F)c3)nc(=O)n1C2` (stereo not shown) [Example 78, 7-((3,5-difluoro-4-((2-(trifluoromethyl)pyridin-4-yl)oxy)benzyl)oxy)-11a-methyl-3,4,11,11a-tetrahydro-1H,9H-pyrimido[6′,1′:2,3]imidazo [5,1-c][1,4]oxazin-9-one], the figure is 5 nM; as for `Cc1cc(Oc2ccc(COc3cc4n(c(=O)n3)CC35CC(CN43)C5)cc2F)ccn1` [Example 119, 3-((3-fluoro-4-((2-methyl-pyridin-4-yl)oxy)benzyl)oxy)-7,8-dihydro-1H,6H,9H-7,8a-methanopyrrolo[1′,2′:3,4] imidazo[1,2-c]pyrimidin-1-one], 8.2 nM; as for `COc1c(OCc2ccc(F)c(F)c2)nc(=O)n2c1N1CC3CC1(C3)C2` [Example 150, 3-((3,4-difluorobenzyl)oxy)-4-methoxy-7,8-dihydro-1H,6H,9H-7,8a-methanopyrrolo[1′,2′:3,4] imidazo[1,2-c]pyrimidin-1-one], 4.8 nM.
Same read-out and setting: the figure for `CCc1c(OCc2cc(F)c(Oc3ccnc(C(F)(F)F)c3)c(F)c2)nc(=O)n2c1N1C[C@@H]3C[C@]1(CO3)C2` [Example 104, (3S,11aR)-7-((3,5-difluoro-4-((2-(trifluoromethyl)pyridin-4-yl)oxy)benzyl)oxy)-6-ethyl-3,4-dihydro-1H,9H,11H-3,11a-methanopyrimido[6′,1′:2,3] imidazo[5,1-c][1,4]oxazin-9-one] is 8.6 nM; for `COCC12CN3c4cc(OCc5ccc(Oc6ccnc(C(F)(F)F)c6)c(F)c5)nc(=O)n4CC3(C1)C2` [Example 138, 3-((3-fluoro-4-((2-(trifluoromethyl)pyridin-4-yl)oxy)benzyl)oxy)-7-(methoxymethyl)-7,8-dihydro-1H,6H,9H-7,8a-methanopyrrolo[1′,2′:3,4] imidazo[1,2-c]pyrimidin-1-one] it is 2.4 nM.
As to `N#Cc1cc(COc2cc3n(c(=O)n2)CC24CC(CN32)C4)ccc1Oc1ccc(Cl)c(C(F)(F)F)c1` [Example 41], the IC50 was determined as 3.9 nM.
Same read-out and setting: as for `COc1c(OCc2cc(F)c(F)c(F)c2)nc(=O)n2c1N1CC3CC1(C3)C2` [Example 151], the figure is 5.7 nM.
Still for that read-out and setting: as for `Cc1c(OCc2ccc(Oc3ccnc(C(F)(F)F)c3)cc2)nc(=O)n2c1N1C[C@@H]3C[C@]1(CO3)C2` [Example 108, (3S,11aR)-7-((4-((2-(trifluoromethyl)pyridin-4-yl)oxy)benzyl)oxy)-6-methyl-3,4-dihydro-1H,9H,11H-3,11a-methanopyrimido[6′,1′:2,3] imidazo[5,1-c][1,4]oxazin-9-one], the figure is 5 nM; as for `O=c1nc(OCCc2ccc(Oc3cccc(C(F)(F)F)c3)c(F)c2)cc2n1CC13CC(CN21)C3` [Example 182, 3-(3-fluoro-4-(3-(trifluoromethyl)phenoxy)phenethoxy)-7,8-dihydro-1H,6H,9H-7,8a-methanopyrrolo[1′,2′:3,4]imidazo[1,2-c] pyrimidin-1-one], 9.4 nM; as for `O=c1nc(OCc2ccc(Oc3ccnc(OC(F)(F)F)c3)c(F)c2)cc2n1CC13CC(CN21)C3` [Example 153], 4.1 nM.
On the same count and under the same terms, as for `CC12CCCN1c1cc(OCc3ccc(F)c(F)c3)nc(=O)n1C2` (stereo not shown) [Example 62, 3-((3,4-difluorobenzyl)oxy)-8a-methyl-7,8,8a,9-tetrahydro-1H,6H-pyrrolo[1′,2′:3,4]imidazo [1,2-c]pyrimidin-1-one], the figure is 13 nM; as for `CC12CCCN1c1cc(OCCc3ccc(Oc4ccc(Cl)c(C(F)(F)F)c4)cc3)nc(=O)n1C2` (stereo not shown) [Example 61, 3-(4-(4-chloro-3-(trifluoromethyl)phenoxy)phenethoxy)-8a-methyl-7,8,8a,9-tetrahydro-1H,6H-pyrrolo[1′,2′:3,4]imidazo [1,2-c]pyrimidin-1-one], 3.4 nM.
As to `O=c1nc(OCc2cc(F)c(Oc3ccnc(C(F)(F)F)c3)c(F)c2)cc2n1C[C@]13CC[C@H](CN21)C3` [Example 123], the half-inhibitory concentration (IC50) was determined as 4.4 nM.
The same measure, in the same setting: as for `O=c1nc(OCc2cc(F)c(Oc3cncc(C(F)(F)F)c3)c(F)c2)cc2n1C[C@@]13CO[C@@H](CN21)C3` [Example 29, (3R,11aS)-7-((3,5-difluoro-4-((5-(trifluoromethyl)pyridin-3-yl)oxy)benzyl)oxy)-3,4-dihydro-1H,9H,11H-3,11a-methanopyrimido[6′,1′:2,3] imidazo[5,1-c][1,4]oxazin-9-one], the figure is 3.4 nM.
Regarding `O=c1nc(OCc2cc(F)c(Oc3ccc(F)c(F)c3)c(F)c2)cc2n1C[C@]13CO[C@H](CN21)C3` [Example 136], the IC50 was determined as 3.8 nM.
On to `O=c1nc(OCc2cc(F)c(Oc3ccnc(OC(F)(F)F)c3)c(F)c2)cc2n1C[C@]13CO[C@H](CN21)C3` [Example 5, (3S,11aR)-7-((3,5-difluoro-4-((2-(trifluoromethoxy)pyridin-4-yl)oxy)benzyl)oxy)-3,4-dihydro-1H,9H,11H-3,11a-methanopyrimido[6′,1′:2,3] imidazo[5,1-c][1,4]oxazin-9-one], for which the half-inhibitory concentration (IC50) worked out at 4.2 nM.
The same measure, in the same setting: as for `CC12CCCCN1c1cc(OCCc3ccc(Oc4ccc(Cl)c(C(F)(F)F)c4)cc3)nc(=O)n1C2` (stereo not shown) [Example 73, 3-(4-(4-chloro-3-(trifluoromethyl)phenoxy)phenethoxy)-9a-methyl-6,7,8,9,9a,10-hexahydro-1H-pyrido[1′,2′:3,4]imidazo [1,2-c]pyrimidin-1-one], the figure is 4.8 nM.
Still for that read-out and setting: as for `O=c1nc(OCc2ccc(Oc3ccnc(C(F)(F)F)c3)cc2F)cc2n1C[C@]13CO[C@H](CN21)C3` [Example 96, (3S,11aR)-7-((2-difluoro-4-((2-(trifluoromethyl)pyridin-4-yl)oxy)benzyl)oxy)-3,4-dihydro-1H,9H,11H-3,11a-methanopyrimido[6′1′:2,3] imidazo[5,1-c][1,4]oxazin-9-one], the figure is 4.7 nM.
On the same count and under the same terms, as for `N#Cc1cc(F)cc(COc2cc3n(c(=O)n2)C[C@]24CO[C@H](CN32)C4)c1` [Example 141, 3-fluoro-5-((((3S,11aR)-9-oxo-3,4-dihydro-1H,9H,11H-3,11a-methanopyrimido[6′,1′:2,3]imidazo[5,1-c][1,4]oxazin-7-yl)oxy)methyl)benzonitrile], the figure is 6.1 nM; as for `O=c1nc(OCc2ccc(Oc3ccnc(C(F)(F)F)c3)c(F)c2)cc2n1CC13CC(CCN21)C3` [Example 165, 3-((3-fluoro-4-((2-(trifluoromethyl)pyridin-4-yl)oxy)benzyl)oxy)-6,7,8,9-tetrahydro-1H,10H-8,9a-methano-pyrido[1′,2′:3,4] imidazo[1,2-c]pyrimidin-1-one], 3.1 nM; as for `O=C1N(Cc2ccccc2)[C@@H]2CN3c4cc(OCc5cc(F)c(Oc6ccnc(C(F)(F)F)c6)c(F)c5)nc(=O)n4C[C@]13C2` [Example 131], 7.9 nM.
Turning to `O=c1nc(OCc2cc(F)c(Oc3ccnc(C(F)(F)F)c3)c(F)c2)cc2n1C[C@@]13CO[C@@H](CN21)C3` [Example 26, (3R,11aS)-7-((3,5-difluoro-4-((2-(trifluoromethyl)pyridin-4-yl)oxy)benzyl)oxy)-3,4-dihydro-1H,9H,11H-3,11a-methanopyrimido[6′,1′:2,3] imidazo[5,1-c][1,4]oxazin-9-one], the IC50 is 5.5 nM.
